Laboratory results: article PMC8659069, “Optimization of 4-Anilinoquinolines as Dengue Virus Inhibitors” (Molecules, 2021)

tested on: DENV2; test: microbe, parasite or virus in culture; format: cell-based, dengue virus (DENV2, New Guinea C strain); conditions: not given

For CNc1cccc(Nc2ccnc3ccc(Br)cc23)c1 [Compound 21, N^1-(6-bromoquinolin-4-yl)-N^3-methylbenzene-1,3-diamine], the “selectivity index window (CC50/EC50, DENV, Huh7)” value was 22 fold.

same assay, conditions: Dengue virus, DENV2, Huh-7, 48 h, read-out: DENV Inhibition EC50

Going from CN(C)c1cccc(Nc2ccnc3ccc(C(F)(F)F)cc23)c1 [Compound 9] to CNc1cccc(Nc2ccnc3ccc(C(F)(F)F)cc23)c1 [Compound 8], the EC50 rises from 2.3 µM to 8.9 µM (3.9-fold). The first is the more potent here.

Cn1nnc2c(Nc3ccnc4ccc(Br)cc34)cccc21 [Compound 46] and Cn1ncc2c(Nc3ccnc4ccc(Br)cc34)cccc21 [Compound 47] are the same in EC50: ~5 µM for the first, ~5 µM for the second.

Going from Brc1ccc2nccc(Nc3cccc4oncc34)c2c1 [Compound 40] to Brc1ccc2nccc(Nc3cccc4[nH]ncc34)c2c1 [Compound 48], the EC50 falls from > 10 µM to 2.1 µM. The second is the more potent here.

CC(C)(C)c1cccc(Nc2ccnc3ccc(Br)cc23)c1 [Compound 27] and Oc1cccc(Nc2ccnc3ccc(Br)cc23)c1 [Compound 12, 3-((6-bromoquinolin-4-yl)amino)phenol] are within 1.5-fold of each other in EC50: 0.94 µM for the first, 0.63 µM for the second.

Compared with Brc1ccc2nccc(Nc3cccc4c3CCO4)c2c1 [Compound 35], Brc1ccc2nccc(Nc3cccc4scnc34)c2c1 [Compound 42] is higher in EC50: 0.95 µM for the first, > 10 µM for the second. The first is the more potent here.

Going from Brc1ccc2nccc(Nc3ccc4[nH]ncc4c3)c2c1 [Compound 51] to Brc1ccc2nccc(Nc3ccc4cn[nH]c4c3)c2c1 [Compound 49], the EC50 rises from 1.2 µM to 1.8 µM (1.5-fold). The first is the more potent here.

Fc1ccc2c(c1Nc1ccnc3ccc(Br)cc13)OCO2 [Compound 32] and Brc1ccc2nccc(Nc3ccc4c(c3)OCO4)c2c1 [Compound 28] are within 1.5-fold of each other in EC50: 1.9 µM for the first, 1.7 µM for the second.

Compared with OCc1cccc(Nc2ccnc3ccc(C(F)(F)F)cc23)c1 [Compound 10], COc1cccc(Nc2ccnc3ccc(C(F)(F)F)cc23)c1 [Compound 4] is 8-fold lower in EC50: 6.6 µM for the first, 0.82 µM for the second.

Oc1cccc(Nc2ccnc3ccccc23)c1 [Compound 14] and CS(=O)(=O)c1ccc2nccc(Nc3cccc(O)c3)c2c1 [Compound 18] cannot be ordered by EC50: > 10 µM for the first, > 10 µM for the second.

Brc1ccc2nccc(Nc3cccc4nsnc34)c2c1 [Compound 45] and OCc1ccccc1Nc1ccnc2ccc(Br)cc12 [Compound 24] are within 1.5-fold of each other in EC50: 5.8 µM for the first, 7.1 µM for the second.

Compared with O=C1NCc2ccc(Nc3ccnc4ccc(Br)cc34)cc21 [Compound 52, 6-((6-bromoquinolin-4-yl)amino)isoindolin-1-one], O=c1[nH]c2cc(Nc3ccnc4ccc(Br)cc34)ccc2o1 [Compound 54] is higher in EC50: 0.64 µM for the first, > 10 µM for the second.

First: OCc1cccc(Nc2ccnc3ccc(Br)cc23)c1 [Compound 23]
Second: Nc1cccc(Nc2ccnc3ccc(Br)cc23)c1 [Compound 20]
The EC50 of the first is lower: 3.7 µM for the first, > 10 µM for the second. The first is the more potent here.

Fc1cc2cn[nH]c2cc1Nc1ccnc2ccc(Br)cc12 [Compound 50, 6-bromo-N-(5-fluoro-1H-indazol-6-yl)quinolin-4-amine] and COc1cccc(Nc2ccnc3ccc(Br)cc23)c1 [Compound 11] are within 1.5-fold of each other in EC50: 0.69 µM for the first, 0.84 µM for the second.

Going from CN(C)c1cccc(Nc2ccnc3ccc(Br)cc23)c1 [Compound 22] to CNc1cccc(Nc2ccnc3ccc(Br)cc23)c1 [Compound 21, N^1-(6-bromoquinolin-4-yl)-N^3-methylbenzene-1,3-diamine], the EC50 falls from > 10 µM to 0.24 µM.

same assay, conditions: Dengue virus, DENV2, Huh-7, 48 h, read-out: DENV Inhibition EC90

Compared with O=C1NCc2ccc(Nc3ccnc4ccc(Br)cc34)cc21 [Compound 52, 6-((6-bromoquinolin-4-yl)amino)isoindolin-1-one], Oc1cccc(Nc2ccnc3ccc(Br)cc23)c1 [Compound 12, 3-((6-bromoquinolin-4-yl)amino)phenol] is 2.1-fold higher in EC90: 1.51 µM for the first, 3.2 µM for the second.

First: Fc1cc2cn[nH]c2cc1Nc1ccnc2ccc(Br)cc12 [Compound 50, 6-bromo-N-(5-fluoro-1H-indazol-6-yl)quinolin-4-amine]
Second: CNc1cccc(Nc2ccnc3ccc(Br)cc23)c1 [Compound 21, N^1-(6-bromoquinolin-4-yl)-N^3-methylbenzene-1,3-diamine]
The EC90 of the first is 5.8-fold higher: 3.98 µM for the first, 0.69 µM for the second.

Molecule COc1cccc(Nc2ccnc3ccc(C(F)(F)F)cc23)c1 [Compound 4] has an EC90 of 1.5 µM.

same assay, conditions: read-out: DENV Inhibition EC50

Cn1nnc2c(Nc3ccnc4ccc(Br)cc34)cccc21 [Compound 46] and Cn1ncc2c(Nc3ccnc4ccc(Br)cc34)cccc21 [Compound 47] are within 1.5-fold of each other in EC50: 5.5 µM for the first, 5.4 µM for the second.

same assay, conditions: read-out: DENV Inhibition EC90

Compared with O=C1NCc2ccc(Nc3ccnc4ccc(Br)cc34)cc21 [Compound 52, 6-((6-bromoquinolin-4-yl)amino)isoindolin-1-one], Fc1cc2cn[nH]c2cc1Nc1ccnc2ccc(Br)cc12 [Compound 50, 6-bromo-N-(5-fluoro-1H-indazol-6-yl)quinolin-4-amine] is 2.7-fold higher in EC90: 1.5 µM for the first, 4 µM for the second.

tested on: VEEV (TC-83); test: microbe, parasite or virus in culture; format: cell-based, Venezuelan Equine Encephalitis virus; conditions: not given

In the case of O=C1NCc2ccc(Nc3ccnc4ccc(Br)cc34)cc21 [Compound 52, 6-((6-bromoquinolin-4-yl)amino)isoindolin-1-one], the “reduction in potency against VEEV relative to DENV” value is reported as 4-8 fold.
In the case of Fc1cc2cn[nH]c2cc1Nc1ccnc2ccc(Br)cc12 [Compound 50, 6-bromo-N-(5-fluoro-1H-indazol-6-yl)quinolin-4-amine], the “reduction in potency against VEEV relative to DENV” value is reported as 4-8 fold.
In the case of CNc1cccc(Nc2ccnc3ccc(Br)cc23)c1 [Compound 21, N^1-(6-bromoquinolin-4-yl)-N^3-methylbenzene-1,3-diamine], the “reduction in potency against VEEV relative to DENV” value is reported as 4-8 fold.

same assay, conditions: Venezuelan equine encephalitis virus, U-87 MG, 18 h, read-out: VEEV Inhibition EC50

Compared with O=C1NCc2ccc(Nc3ccnc4ccc(Br)cc34)cc21 [Compound 52, 6-((6-bromoquinolin-4-yl)amino)isoindolin-1-one], Oc1cccc(Nc2ccnc3ccc(Br)cc23)c1 [Compound 12, 3-((6-bromoquinolin-4-yl)amino)phenol] is 2.8-fold higher in EC50: 3.6 µM for the first, 9.9 µM for the second. The first is the more potent here.

First: Fc1cc2cn[nH]c2cc1Nc1ccnc2ccc(Br)cc12 [Compound 50, 6-bromo-N-(5-fluoro-1H-indazol-6-yl)quinolin-4-amine]
Second: CNc1cccc(Nc2ccnc3ccc(Br)cc23)c1 [Compound 21, N^1-(6-bromoquinolin-4-yl)-N^3-methylbenzene-1,3-diamine]
The EC50 of the first is 2.2-fold higher: 2.3 µM for the first, 1.03 µM for the second.

For COc1cccc(Nc2ccnc3ccc(C(F)(F)F)cc23)c1 [Compound 4], the EC50 was > 10 µM.

same assay, conditions: Venezuelan equine encephalitis virus, U-87 MG, 18 h, read-out: VEEV Inhibition EC90

O=C1NCc2ccc(Nc3ccnc4ccc(Br)cc34)cc21 [Compound 52, 6-((6-bromoquinolin-4-yl)amino)isoindolin-1-one] and Oc1cccc(Nc2ccnc3ccc(Br)cc23)c1 [Compound 12, 3-((6-bromoquinolin-4-yl)amino)phenol] cannot be ordered by EC90: > 10 µM for the first, > 10 µM for the second.

Fc1cc2cn[nH]c2cc1Nc1ccnc2ccc(Br)cc12 [Compound 50, 6-bromo-N-(5-fluoro-1H-indazol-6-yl)quinolin-4-amine] and CNc1cccc(Nc2ccnc3ccc(Br)cc23)c1 [Compound 21, N^1-(6-bromoquinolin-4-yl)-N^3-methylbenzene-1,3-diamine] are within 1.5-fold of each other in EC90: 9.6 µM for the first, 10.7 µM for the second.

With COc1cccc(Nc2ccnc3ccc(C(F)(F)F)cc23)c1 [Compound 4] the EC90 was > 10 µM.

same assay, conditions: read-out: VEEV Inhibition EC50

Work on CNc1cccc(Nc2ccnc3ccc(Br)cc23)c1 [Compound 21, N^1-(6-bromoquinolin-4-yl)-N^3-methylbenzene-1,3-diamine] yielded an EC50 of 1 µM.

same assay, conditions: read-out: VEEV Inhibition EC90

For CNc1cccc(Nc2ccnc3ccc(Br)cc23)c1 [Compound 21, N^1-(6-bromoquinolin-4-yl)-N^3-methylbenzene-1,3-diamine], the EC90 was > 10 µM.

tested on: not given; test: not given; conditions: not given

For Oc1cccc(Nc2ccnc3ccc(Br)cc23)c1 [Compound 12, 3-((6-bromoquinolin-4-yl)amino)phenol], the melting point was > 300 °C.

tested on: not listed separately; test: in vitro; conditions: human

CN(C)c1cccc(Nc2ccnc3ccc(C(F)(F)F)cc23)c1 [Compound 9] and CNc1cccc(Nc2ccnc3ccc(C(F)(F)F)cc23)c1 [Compound 8] cannot be ordered by CC50: > 10 µM for the first, > 10 µM for the second.

Compared with CC(C)(C)c1cccc(Nc2ccnc3ccc(Br)cc23)c1 [Compound 27], Oc1cccc(Nc2ccnc3ccc(Br)cc23)c1 [Compound 12, 3-((6-bromoquinolin-4-yl)amino)phenol] is higher in CC50: 6 µM for the first, > 10 µM for the second.

Brc1ccc2nccc(Nc3cccc4c3CCO4)c2c1 [Compound 35] and Brc1ccc2nccc(Nc3cccc4scnc34)c2c1 [Compound 42] cannot be ordered by CC50: > 10 µM for the first, > 10 µM for the second.

OCc1cccc(Nc2ccnc3ccc(C(F)(F)F)cc23)c1 [Compound 10] and COc1cccc(Nc2ccnc3ccc(C(F)(F)F)cc23)c1 [Compound 4] cannot be ordered by CC50: > 10 µM for the first, > 10 µM for the second.

Going from Brc1ccc2nccc(Nc3ccc4c(c3)OCO4)c2c1 [Compound 28] to Nc1cccc(Nc2ccnc3ccc(Br)cc23)c1 [Compound 20], the CC50 rises from 8.6 µM to > 10 µM.

Oc1cccc(Nc2ccnc3ccccc23)c1 [Compound 14] and CS(=O)(=O)c1ccc2nccc(Nc3cccc(O)c3)c2c1 [Compound 18] cannot be ordered by CC50: > 10 µM for the first, > 10 µM for the second.

OCc1ccccc1Nc1ccnc2ccc(Br)cc12 [Compound 24] and OCc1cccc(Nc2ccnc3ccc(Br)cc23)c1 [Compound 23] cannot be ordered by CC50: > 10 µM for the first, > 10 µM for the second.

Fc1cc2cn[nH]c2cc1Nc1ccnc2ccc(Br)cc12 [Compound 50, 6-bromo-N-(5-fluoro-1H-indazol-6-yl)quinolin-4-amine] and Brc1ccc2nccc(Nc3ccc4cn[nH]c4c3)c2c1 [Compound 49] cannot be ordered by CC50: > 10 µM for the first, > 10 µM for the second.

O=c1[nH]c2cc(Nc3ccnc4ccc(Br)cc34)ccc2o1 [Compound 54] and COc1cccc(Nc2ccnc3ccc(Br)cc23)c1 [Compound 11] cannot be ordered by CC50: > 10 µM for the first, > 10 µM for the second.

In the case of CN(C)c1cccc(Nc2ccnc3ccc(Br)cc23)c1 [Compound 22], the CC50 is reported as > 10 µM.

Cn1nnc2c(Nc3ccnc4ccc(Br)cc34)cccc21 [Compound 46] and Cn1ncc2c(Nc3ccnc4ccc(Br)cc34)cccc21 [Compound 47] cannot be ordered by CC50 at 48 h: > 10 µM for the first, > 10 µM for the second.

Brc1ccc2nccc(Nc3cccc4oncc34)c2c1 [Compound 40] and Brc1ccc2nccc(Nc3cccc4[nH]ncc34)c2c1 [Compound 48] cannot be ordered by CC50 at 48 h: > 10 µM for the first, > 10 µM for the second.

Brc1ccc2nccc(Nc3ccc4[nH]ncc4c3)c2c1 [Compound 51] and O=C1NCc2ccc(Nc3ccnc4ccc(Br)cc34)cc21 [Compound 52, 6-((6-bromoquinolin-4-yl)amino)isoindolin-1-one] cannot be ordered by CC50 at 48 h: > 10 µM for the first, > 10 µM for the second.

Fc1ccc2c(c1Nc1ccnc3ccc(Br)cc13)OCO2 [Compound 32] and Brc1ccc2nccc(Nc3cccc4nsnc34)c2c1 [Compound 45] cannot be ordered by CC50 at 48 h: > 10 µM for the first, > 10 µM for the second.

tested on: not listed separately; test: in vitro; conditions: human; remark: another data set of the same source

O=C1NCc2ccc(Nc3ccnc4ccc(Br)cc34)cc21 [Compound 52, 6-((6-bromoquinolin-4-yl)amino)isoindolin-1-one] and Oc1cccc(Nc2ccnc3ccc(Br)cc23)c1 [Compound 12, 3-((6-bromoquinolin-4-yl)amino)phenol] cannot be ordered by CC50: > 10 µM for the first, > 10 µM for the second.

Fc1cc2cn[nH]c2cc1Nc1ccnc2ccc(Br)cc12 [Compound 50, 6-bromo-N-(5-fluoro-1H-indazol-6-yl)quinolin-4-amine] and COc1cccc(Nc2ccnc3ccc(C(F)(F)F)cc23)c1 [Compound 4] cannot be ordered by CC50: > 10 µM for the first, > 10 µM for the second.

tested on: not listed separately; test: in vitro; conditions: African green monkey

O=C1NCc2ccc(Nc3ccnc4ccc(Br)cc34)cc21 [Compound 52, 6-((6-bromoquinolin-4-yl)amino)isoindolin-1-one] and Oc1cccc(Nc2ccnc3ccc(Br)cc23)c1 [Compound 12, 3-((6-bromoquinolin-4-yl)amino)phenol] cannot be ordered by CC50: > 10 µM for the first, > 10 µM for the second.

Fc1cc2cn[nH]c2cc1Nc1ccnc2ccc(Br)cc12 [Compound 50, 6-bromo-N-(5-fluoro-1H-indazol-6-yl)quinolin-4-amine] and CNc1cccc(Nc2ccnc3ccc(Br)cc23)c1 [Compound 21, N^1-(6-bromoquinolin-4-yl)-N^3-methylbenzene-1,3-diamine] cannot be ordered by CC50: > 10 µM for the first, > 10 µM for the second.

With COc1cccc(Nc2ccnc3ccc(C(F)(F)F)cc23)c1 [Compound 4] the CC50 was > 10 µM.
